This note sets out measurements from PMC12647759 (Scientific Reports, 2025).

As a reminder, the IC50 is the point on the concentration scale where inhibition reaches its midpoint.

Values joined by “and” are separate entries in the source; they are usually repeats but may differ in a detail not shown here. Identical values can stand only once.

What all share (type): biochemical
One test addresses T1, human PLCε (Homo sapiens, UniProt Q9P212).
T1 construct: expressing the full-length polypeptides of human PLCε, PLCβ4, PLCδ1 and PLCγ1 as FLAG fusions; made in house; host or cells: Expi293F cells
The test can be described thus: In vitro PLC assay using fluorogenic substrate Compound 1 (HTS), PLCε. Particulars: for IC50: purified full-length PLCε, fluorogenic substrate Compound 1, read-out: IC50, inhibition of PLCε (hydrolysis of Compound 1). The procedure:
For measuring inhibition by compounds for HTS, the reactions were conducted at RIKEN Center for Sustainable Resource Science (CSRS) as described above except that 5 µl of compound solution and 5 µl of purified PLCe (120 ng) were added to each well. […] For determination of the IC50 values for ZPT and Zn^2+, the EDTA concentration was reduced to one-tenth to avoid its zinc-chelating effect. For assay of the other PLC classes, the reactions were performed similarly except that PLCβ4 (5 ng), PLCδ1 (0.1 ng) or PLCγ1 (0.3 ng) was used instead of PLCε.

In a further test the target is T2, human PLCδ1 (Homo sapiens, UniProt P51178).
T2 construct: expressing the full-length polypeptides of human PLCε, PLCβ4, PLCδ1 and PLCγ1 as FLAG fusions; made in house; host or cells: Expi293F cells
T2 sequence (P51178 1-756): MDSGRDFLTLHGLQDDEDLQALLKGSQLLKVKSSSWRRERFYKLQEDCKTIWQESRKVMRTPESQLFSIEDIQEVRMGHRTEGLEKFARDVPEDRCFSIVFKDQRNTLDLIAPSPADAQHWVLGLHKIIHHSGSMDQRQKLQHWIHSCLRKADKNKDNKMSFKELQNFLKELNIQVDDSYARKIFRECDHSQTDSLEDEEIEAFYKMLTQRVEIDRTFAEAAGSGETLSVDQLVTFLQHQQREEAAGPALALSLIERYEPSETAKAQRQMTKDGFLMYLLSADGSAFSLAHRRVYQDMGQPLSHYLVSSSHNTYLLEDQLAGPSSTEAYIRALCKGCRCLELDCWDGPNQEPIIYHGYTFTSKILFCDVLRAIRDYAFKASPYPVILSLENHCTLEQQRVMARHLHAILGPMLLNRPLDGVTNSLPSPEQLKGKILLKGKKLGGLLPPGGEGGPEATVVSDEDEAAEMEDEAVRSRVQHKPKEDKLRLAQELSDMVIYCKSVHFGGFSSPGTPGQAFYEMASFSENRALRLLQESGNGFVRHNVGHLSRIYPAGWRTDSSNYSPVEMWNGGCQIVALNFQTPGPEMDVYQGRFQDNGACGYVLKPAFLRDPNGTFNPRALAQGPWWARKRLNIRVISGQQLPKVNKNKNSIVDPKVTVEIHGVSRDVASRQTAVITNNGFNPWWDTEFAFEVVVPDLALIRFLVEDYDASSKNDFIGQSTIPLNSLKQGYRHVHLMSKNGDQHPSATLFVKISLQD
The test can be described thus: In vitro PLC assay using fluorogenic substrate Compound 1, PLCδ1. The note with it: for IC50: purified PLCδ1, fluorogenic substrate Compound 1, read-out: IC50, inhibition of PLCδ1 (hydrolysis of Compound 1). As for the experimental part:
(§1) Ten µl of 2 × substrate solutions (50 mM HEPES pH7.2, 200 mM NaCl, 0.2 mM CaCl2, 0.4 mM DTT, 0.4 µM EDTA, 0.02% gelatin, 0.2% sodium cholate and 60 µM Compound 1) were added to each well of a 384-well plate (CONING #3573) containing 10 µl of purified PLCε (120 ng) and incubated with shaking at 30 °C for 3 h. After terminating the reaction by the addition of 2 µl of 5 mM EDTA, the fluorescence emission was measured at 520 nm with the excitation at 485 nm by a microplate reader (POLARstar Omega-25). For measuring inhibition by compounds for HTS, the reactions were conducted at RIKEN Center for Sustainable Resource Science (CSRS) as described above except that 5 µl of compound solution and 5 µl of purified PLCe (120 ng) were added to each well. Solution dispensing and fluorescence detection were conducted by using an automated dispenser (EDR-384, Biotec) and a hybrid multi-mode microplate reader (Synergy H4, Biotec), respectively. For determination of the IC50 values for ZPT and Zn^2+, the EDTA concentration was reduced to one-tenth to avoid its zinc-chelating effect. For assay of the other PLC classes, the reactions were performed similarly except that PLCβ4 (5 ng), PLCδ1 (0.1 ng) or PLCγ1 (0.3 ng) was used instead of PLCε.

For a further test, the target named is T3, human PLCβ4 (Homo sapiens, UniProt Q15147).
T3 construct: expressing the full-length polypeptides of human PLCε, PLCβ4, PLCδ1 and PLCγ1 as FLAG fusions; made in house; host or cells: Expi293F cells
T3 sequence (Q15147 1-1175): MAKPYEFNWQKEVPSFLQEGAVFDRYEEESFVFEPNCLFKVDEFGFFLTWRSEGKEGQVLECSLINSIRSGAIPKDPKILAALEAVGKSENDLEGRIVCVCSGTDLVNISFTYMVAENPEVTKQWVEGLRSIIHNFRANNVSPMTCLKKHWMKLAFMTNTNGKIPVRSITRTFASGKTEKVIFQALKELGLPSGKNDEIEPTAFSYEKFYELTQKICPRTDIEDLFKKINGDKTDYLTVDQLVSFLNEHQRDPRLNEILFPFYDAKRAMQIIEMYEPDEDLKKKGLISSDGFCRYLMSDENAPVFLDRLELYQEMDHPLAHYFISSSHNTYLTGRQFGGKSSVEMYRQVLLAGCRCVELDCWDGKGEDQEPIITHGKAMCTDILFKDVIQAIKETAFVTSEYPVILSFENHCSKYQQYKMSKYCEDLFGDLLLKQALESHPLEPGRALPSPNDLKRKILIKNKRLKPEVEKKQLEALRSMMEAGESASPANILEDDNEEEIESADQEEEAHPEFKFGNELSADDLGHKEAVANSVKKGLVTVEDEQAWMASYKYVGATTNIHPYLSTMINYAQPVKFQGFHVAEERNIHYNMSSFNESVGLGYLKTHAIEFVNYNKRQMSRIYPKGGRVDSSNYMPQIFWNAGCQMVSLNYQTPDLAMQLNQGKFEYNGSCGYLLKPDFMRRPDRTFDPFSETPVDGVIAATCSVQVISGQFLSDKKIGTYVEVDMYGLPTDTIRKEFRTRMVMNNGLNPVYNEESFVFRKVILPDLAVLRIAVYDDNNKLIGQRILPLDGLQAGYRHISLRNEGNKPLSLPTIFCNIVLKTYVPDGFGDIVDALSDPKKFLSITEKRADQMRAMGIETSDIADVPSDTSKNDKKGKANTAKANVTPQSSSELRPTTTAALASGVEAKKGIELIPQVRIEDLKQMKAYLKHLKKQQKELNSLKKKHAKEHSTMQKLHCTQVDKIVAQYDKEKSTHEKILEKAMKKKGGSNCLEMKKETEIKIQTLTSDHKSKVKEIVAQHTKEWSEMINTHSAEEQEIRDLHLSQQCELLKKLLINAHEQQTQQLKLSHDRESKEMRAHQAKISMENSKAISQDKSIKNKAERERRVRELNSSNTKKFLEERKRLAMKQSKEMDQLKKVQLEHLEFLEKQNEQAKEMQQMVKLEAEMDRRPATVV
Description: In vitro PLC assay using fluorogenic substrate Compound 1, PLCβ4. The note with it: for IC50: purified PLCβ4, fluorogenic substrate Compound 1, read-out: IC50, inhibition of PLCβ4 (hydrolysis of Compound 1). The procedure:
as §1

[1] abbreviates: Compound 1 as substrate, varying concentrations.

T1 sequence (Q9P212 whole entry, the tested form may be a part): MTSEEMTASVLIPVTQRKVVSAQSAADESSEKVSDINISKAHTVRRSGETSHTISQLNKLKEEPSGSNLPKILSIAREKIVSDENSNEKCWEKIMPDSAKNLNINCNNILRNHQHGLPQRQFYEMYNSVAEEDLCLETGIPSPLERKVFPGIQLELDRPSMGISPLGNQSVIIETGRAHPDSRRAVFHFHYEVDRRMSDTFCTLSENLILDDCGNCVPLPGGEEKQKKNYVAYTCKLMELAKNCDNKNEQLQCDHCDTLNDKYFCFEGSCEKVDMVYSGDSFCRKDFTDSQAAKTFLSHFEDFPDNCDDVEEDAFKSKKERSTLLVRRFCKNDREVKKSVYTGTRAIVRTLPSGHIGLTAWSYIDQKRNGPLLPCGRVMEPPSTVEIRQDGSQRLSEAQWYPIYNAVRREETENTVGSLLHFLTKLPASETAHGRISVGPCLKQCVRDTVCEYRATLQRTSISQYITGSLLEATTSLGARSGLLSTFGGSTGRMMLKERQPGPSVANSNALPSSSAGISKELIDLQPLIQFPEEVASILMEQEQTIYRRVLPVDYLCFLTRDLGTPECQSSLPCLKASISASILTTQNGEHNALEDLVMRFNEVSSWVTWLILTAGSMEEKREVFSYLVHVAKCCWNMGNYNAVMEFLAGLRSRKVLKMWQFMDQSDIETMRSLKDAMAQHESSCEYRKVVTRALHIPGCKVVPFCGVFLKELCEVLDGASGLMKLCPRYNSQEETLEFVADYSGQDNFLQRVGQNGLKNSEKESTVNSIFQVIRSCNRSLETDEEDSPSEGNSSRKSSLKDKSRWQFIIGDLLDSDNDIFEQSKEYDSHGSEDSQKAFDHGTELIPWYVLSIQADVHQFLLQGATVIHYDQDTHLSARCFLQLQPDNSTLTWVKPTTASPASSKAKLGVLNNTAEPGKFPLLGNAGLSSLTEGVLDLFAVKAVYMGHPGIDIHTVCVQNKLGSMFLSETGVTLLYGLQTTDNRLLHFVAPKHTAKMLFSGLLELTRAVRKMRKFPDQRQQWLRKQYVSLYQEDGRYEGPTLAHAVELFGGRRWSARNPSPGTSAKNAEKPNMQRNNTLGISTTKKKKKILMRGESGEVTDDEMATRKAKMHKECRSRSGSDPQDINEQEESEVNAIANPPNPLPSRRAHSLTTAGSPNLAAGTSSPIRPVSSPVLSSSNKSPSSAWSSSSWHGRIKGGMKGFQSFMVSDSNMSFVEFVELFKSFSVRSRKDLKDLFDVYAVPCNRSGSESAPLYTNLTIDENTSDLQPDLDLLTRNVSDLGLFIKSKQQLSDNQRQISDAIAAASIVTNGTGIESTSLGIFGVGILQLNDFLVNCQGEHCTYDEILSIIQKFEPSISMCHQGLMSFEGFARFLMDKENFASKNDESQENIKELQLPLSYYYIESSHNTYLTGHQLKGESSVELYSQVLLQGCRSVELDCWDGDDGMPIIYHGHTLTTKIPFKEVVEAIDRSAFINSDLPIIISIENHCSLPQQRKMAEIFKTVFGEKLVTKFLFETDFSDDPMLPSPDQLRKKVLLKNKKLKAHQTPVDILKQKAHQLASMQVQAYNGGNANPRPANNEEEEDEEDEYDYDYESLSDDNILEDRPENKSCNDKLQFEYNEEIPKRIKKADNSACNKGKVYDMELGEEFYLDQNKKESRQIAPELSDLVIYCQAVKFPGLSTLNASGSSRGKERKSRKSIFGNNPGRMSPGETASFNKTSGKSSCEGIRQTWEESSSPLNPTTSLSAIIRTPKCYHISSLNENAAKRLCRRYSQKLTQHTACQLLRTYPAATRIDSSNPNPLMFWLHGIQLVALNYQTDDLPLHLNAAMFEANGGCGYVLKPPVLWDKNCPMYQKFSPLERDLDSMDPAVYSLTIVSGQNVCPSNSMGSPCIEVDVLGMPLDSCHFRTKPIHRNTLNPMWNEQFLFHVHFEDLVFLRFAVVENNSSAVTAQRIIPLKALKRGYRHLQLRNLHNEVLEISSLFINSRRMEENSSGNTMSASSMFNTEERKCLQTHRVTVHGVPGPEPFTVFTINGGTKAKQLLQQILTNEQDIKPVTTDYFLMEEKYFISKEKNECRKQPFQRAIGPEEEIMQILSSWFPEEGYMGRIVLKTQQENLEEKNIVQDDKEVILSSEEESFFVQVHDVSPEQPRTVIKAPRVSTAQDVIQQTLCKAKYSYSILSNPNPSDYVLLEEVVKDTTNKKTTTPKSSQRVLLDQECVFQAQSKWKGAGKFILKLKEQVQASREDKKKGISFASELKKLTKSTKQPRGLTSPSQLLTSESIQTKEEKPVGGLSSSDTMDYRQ

For `C[n+]1cc2c3c(ccc2c2ccc4cc5c(cc4c21)OCO5)OCO3` [Sanguinarine, sanguinarine], the concentration for half-maximal inhibition (IC50) on human PLCε is 1.9 µM; on human PLCδ1 it was 48 µM and 47.8 µM; on human PLCβ4, 80 µM and 79.7 µM.
Regarding `O=S(=O)([O-])[O-].[Zn+2]` [ZnSO4], at human PLCε (5 µM ZnSO4, varying concentrations of sodium pyrithione), the “PLCε inhibitory activity of ZnSO4 on addition of excess sodium pyrithione” value is listed as “compromised the inhibitory activity of ZnSO4 in a dose-dependent manner”. The IC50 at human PLCε was found to be 1.2 µM. In addition, the “inhibitory activity toward PLCδ” value at human PLCδ1 (setting [1]) is “without exhibiting any noticeable inhibitory activities”. In addition, at human PLCβ4 (setting [1]), the “inhibitory activity toward PLCβ” value is reported as “without exhibiting any noticeable inhibitory activities”.
With `COc1ccc2c(c[n+](C)c3c4cc5c(cc4ccc23)OCO5)c1OC` [chelerythrine], the half-inhibitory concentration (IC50) at human PLCε came to 1.3 µM; at human PLCδ1, 7.3 µM; on human PLCβ4, 40 µM.
For the compound `CCCCCCOc1ccc2c(c1)Oc1cc(OP(=O)(O)O[C@H]3[C@H](O)[C@@H](O)[C@H](OP(=O)(O)O)[C@@H](O)[C@H]3O)ccc1C21OC(=O)c2ccccc21` (stereo partly shown) [compound 1], the 50% inhibitory concentration (IC50) stood at 3.1 µM at human PLCε, 0.4 µM at human PLCδ1 and 3.7 µM at human PLCβ4.
